Tests used:
Type in all cases: biochemical
PI3Kα (p110α/p85α) = PI3Kα (p110α/p85α) (Homo sapiens (Human), UniProt P42336); experiment: ADP-Glo kinase assay for PI3Kα; settings: read-out: IC50 of kinase inhibitory activity, PI3K α
Procedure: (§1) 1.3 Determination of the Inhibitory Activities of Compounds on PI3Kα, PI3Kβ, PI3Kγ, and PI3Kδ Kinase: ADP-Glo Kinase Assay
(§2) Experimental procedures • (1) Preparation of 1× kinase buffer • 50 mM HEPES, pH 7.5 • 3 mM MgCl2 • 1 mM EGTA • 100 mM NaCl • 0.03% CHAPS • 2 mM DTT • (2) Preparation of test compound • 1) Dissolution and dilution of compound: • The compound was dissolved in DMSO to yield a stock solution. Before the assay, the stock solution of the compound was diluted with DMSO in a 384-well plate to yield a 100× solution at a concentration that is 100 times a target concentration for assay. • 50 μL of DMSO was added, respectively, into two blank wells in the same 384 well plate, corresponding to the total reaction control without compound and the blank control without enzyme. • 2) Preparation of test plate: 50 nL of the compound solution in each of the above wells was taken to a test plate. • (3) Kinase reaction • 1) PI3Kα, PI3Kβ, PI3Kγ, and PI3Kδ kinases were dissolved, respectively, in 1× kinase buffer to yield a 2× enzyme solution at a concentration that is twice the final concentration. 2.5 µL of the 2× enzyme solution was taken to each well of the test plate. The blank control without enzyme was added with 2.5 μL of the 1× kinase buffer instead of the enzyme solution. […]

PI3Kγ (pp110gamma) = PI3Kγ (pp110gamma) (Homo sapiens (Human), UniProt P48736); experiment: ADP-Glo kinase assay for PI3Kγ; settings: read-out: IC50 of kinase inhibitory activity, PI3K γ
Procedure: as §1, §2

mTOR = mTOR (Homo sapiens (Human), UniProt P42345); experiment: LanceUltra kinase assay for mTOR; settings: read-out: IC50 of kinase inhibitory activity, mTOR
PI3Kδ (p110δ/p85δ) = PI3Kδ (p110δ/p85δ) (Homo sapiens (Human), UniProt O00329); experiment: ADP-Glo kinase assay for PI3Kδ; settings: read-out: IC50 of kinase inhibitory activity, PI3K δ
Procedure: as §1, §2

ATR = ATR (Homo sapiens (Human), UniProt Q13535); experiment: Caliper mobility shift assay for ATR; settings: read-out: IC50 of kinase inhibitory activity, ATR
Procedure: 1.6 Determination of the Inhibitory Activity of Compounds on ATR: Caliper Mobility Shift Assay for ATR
• (1) Preparation of 1× kinase buffer and reaction termination solution • 1) 1× kinase buffer • 50 mM HEPES, pH 7.5 • 0.0015% Brij-35 • […] • 2) Reaction termination solution • 100 mM HEPES, pH 7.5 • 0.015% Brij-35 • 0.2% Coating Reagent #3 • 50 mM EDTA • (2) Preparation of test compound • 1) The compound was dissolved in DMSO to yield a stock solution. Before the assay, to a 96-well plate, 30 μL of a 10 mM stock solution was taken and added with 60 μL of DMSO. […]

DNA-PK = DNA-PK (Homo sapiens (Human), UniProt P78527); experiment: ADP-Glo kinase assay for DNA-PK; settings: read-out: IC50 of kinase inhibitory activity, DNA-PK
Procedure: 1.4 Determination of the Inhibitory Activities of Compounds on DNA-PK Kinase: ADP-Glo Kinase Assay
• (1) Preparation of 1× kinase buffer • 40 mM Tris, pH 7.5 • 0.0055% Brij-35 • 20 mM MgCl2 • 0.05 mM DTT • (2) Preparation of test compound • 1) The compound was dissolved in DMSO to yield a stock solution. Before the assay, the stock solution of the compound was diluted with DMSO to yield a 100× solution at a concentration that is 100 times a target concentration for assay. If the target concentration was […], the stock solution should be diluted to yield a 1 mM solution at this step. • 2) 100 μL of DMSO was added, respectively, into two blank wells in the same 96 well plate, corresponding to the total reaction control without compound and the blank control without enzyme. • 3) Preparation of test plate: 50 nL of the compound solution in each of the above wells was taken to a 384-well plate as a test plate. • (3) Kinase reaction • 1) DNA-PK kinase was dissolved in 1× kinase buffer to yield a 2× enzyme solution that is twice the final concentration. 2.5 μL of the 2× enzyme solution was taken to each well of the test plate. The blank control without enzyme was added with 2.5 μL of the 1× kinase buffer instead of the enzyme solution. […]

ATM = ATM (Homo sapiens (Human), UniProt Q13315); experiment: Caliper mobility shift assay for ATM; settings: read-out: IC50 of inhibitory activity on ATM kinase
Procedure: 1.2 Determination of the Inhibitory Activities of Compounds on ATM: Caliper Mobility Shift Assay for ATM
To a 96-well plate, 98 μL of DMSO and 2 μL of the 10 mM stock solution were added and mixed evenly so that the concentration of the solution was 200 μM.
Based on the inhibitory rates of the compound at different concentrations, IC50 was calculated according to the formula: Y=Bottom+(Top−Bottom)/(1+(IC50/X)^HillSlope).

PI3Kβ (p110β) = experiment: ADP-Glo kinase assay for PI3Kβ; settings: read-out: IC50 of kinase inhibitory activity, PI3K β
Procedure: as §1, §2

Chain of PI3Kα (p110α/p85α) (P42336 whole entry): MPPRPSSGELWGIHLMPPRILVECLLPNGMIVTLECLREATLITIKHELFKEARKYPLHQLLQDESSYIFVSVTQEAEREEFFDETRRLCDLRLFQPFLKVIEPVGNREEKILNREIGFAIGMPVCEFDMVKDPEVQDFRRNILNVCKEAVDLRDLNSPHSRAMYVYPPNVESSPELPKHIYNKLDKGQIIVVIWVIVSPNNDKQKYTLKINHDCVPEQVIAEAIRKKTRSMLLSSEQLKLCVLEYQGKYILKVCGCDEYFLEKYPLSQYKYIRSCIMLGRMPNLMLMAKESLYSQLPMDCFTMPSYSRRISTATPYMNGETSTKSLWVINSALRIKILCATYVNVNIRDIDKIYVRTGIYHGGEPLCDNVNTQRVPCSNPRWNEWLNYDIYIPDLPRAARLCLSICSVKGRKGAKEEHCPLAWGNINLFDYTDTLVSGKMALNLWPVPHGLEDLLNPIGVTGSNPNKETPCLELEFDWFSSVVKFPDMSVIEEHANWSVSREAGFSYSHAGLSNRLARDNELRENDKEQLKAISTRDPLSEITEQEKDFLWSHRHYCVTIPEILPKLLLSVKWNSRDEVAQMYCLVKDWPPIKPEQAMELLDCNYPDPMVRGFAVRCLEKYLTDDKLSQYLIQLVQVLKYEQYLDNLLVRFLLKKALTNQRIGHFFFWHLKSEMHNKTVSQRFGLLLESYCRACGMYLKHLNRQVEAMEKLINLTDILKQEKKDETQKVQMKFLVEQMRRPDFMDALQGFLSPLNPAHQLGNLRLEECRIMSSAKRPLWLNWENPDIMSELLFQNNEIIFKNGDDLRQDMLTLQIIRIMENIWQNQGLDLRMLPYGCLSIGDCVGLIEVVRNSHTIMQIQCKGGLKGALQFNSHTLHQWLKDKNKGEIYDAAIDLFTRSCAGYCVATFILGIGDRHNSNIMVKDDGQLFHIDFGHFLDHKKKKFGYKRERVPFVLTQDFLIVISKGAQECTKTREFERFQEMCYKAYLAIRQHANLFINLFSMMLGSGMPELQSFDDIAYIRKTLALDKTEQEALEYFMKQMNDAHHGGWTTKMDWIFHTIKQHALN
Chain of PI3Kα (p110α/p85α) (P27986 whole entry partner): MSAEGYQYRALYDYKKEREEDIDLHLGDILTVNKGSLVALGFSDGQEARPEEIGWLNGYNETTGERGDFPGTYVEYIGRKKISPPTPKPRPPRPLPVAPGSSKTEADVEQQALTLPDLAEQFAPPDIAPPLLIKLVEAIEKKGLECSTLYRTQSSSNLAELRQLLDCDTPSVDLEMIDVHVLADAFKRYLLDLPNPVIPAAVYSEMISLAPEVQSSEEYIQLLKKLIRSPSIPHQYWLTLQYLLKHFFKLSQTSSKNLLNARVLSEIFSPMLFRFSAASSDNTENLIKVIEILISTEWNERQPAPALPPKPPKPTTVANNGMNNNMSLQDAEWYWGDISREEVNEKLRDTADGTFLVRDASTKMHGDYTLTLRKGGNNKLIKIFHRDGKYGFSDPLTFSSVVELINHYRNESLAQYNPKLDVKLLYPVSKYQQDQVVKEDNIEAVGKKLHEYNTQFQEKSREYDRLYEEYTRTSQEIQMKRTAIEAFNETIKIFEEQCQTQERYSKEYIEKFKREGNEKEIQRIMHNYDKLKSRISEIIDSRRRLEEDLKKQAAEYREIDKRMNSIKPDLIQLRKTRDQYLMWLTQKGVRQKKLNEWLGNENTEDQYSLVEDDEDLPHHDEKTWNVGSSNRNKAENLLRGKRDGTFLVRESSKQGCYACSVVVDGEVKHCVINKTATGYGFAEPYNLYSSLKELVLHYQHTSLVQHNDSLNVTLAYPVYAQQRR
Chain of PI3Kδ (p110δ/p85δ) (O00329 whole entry): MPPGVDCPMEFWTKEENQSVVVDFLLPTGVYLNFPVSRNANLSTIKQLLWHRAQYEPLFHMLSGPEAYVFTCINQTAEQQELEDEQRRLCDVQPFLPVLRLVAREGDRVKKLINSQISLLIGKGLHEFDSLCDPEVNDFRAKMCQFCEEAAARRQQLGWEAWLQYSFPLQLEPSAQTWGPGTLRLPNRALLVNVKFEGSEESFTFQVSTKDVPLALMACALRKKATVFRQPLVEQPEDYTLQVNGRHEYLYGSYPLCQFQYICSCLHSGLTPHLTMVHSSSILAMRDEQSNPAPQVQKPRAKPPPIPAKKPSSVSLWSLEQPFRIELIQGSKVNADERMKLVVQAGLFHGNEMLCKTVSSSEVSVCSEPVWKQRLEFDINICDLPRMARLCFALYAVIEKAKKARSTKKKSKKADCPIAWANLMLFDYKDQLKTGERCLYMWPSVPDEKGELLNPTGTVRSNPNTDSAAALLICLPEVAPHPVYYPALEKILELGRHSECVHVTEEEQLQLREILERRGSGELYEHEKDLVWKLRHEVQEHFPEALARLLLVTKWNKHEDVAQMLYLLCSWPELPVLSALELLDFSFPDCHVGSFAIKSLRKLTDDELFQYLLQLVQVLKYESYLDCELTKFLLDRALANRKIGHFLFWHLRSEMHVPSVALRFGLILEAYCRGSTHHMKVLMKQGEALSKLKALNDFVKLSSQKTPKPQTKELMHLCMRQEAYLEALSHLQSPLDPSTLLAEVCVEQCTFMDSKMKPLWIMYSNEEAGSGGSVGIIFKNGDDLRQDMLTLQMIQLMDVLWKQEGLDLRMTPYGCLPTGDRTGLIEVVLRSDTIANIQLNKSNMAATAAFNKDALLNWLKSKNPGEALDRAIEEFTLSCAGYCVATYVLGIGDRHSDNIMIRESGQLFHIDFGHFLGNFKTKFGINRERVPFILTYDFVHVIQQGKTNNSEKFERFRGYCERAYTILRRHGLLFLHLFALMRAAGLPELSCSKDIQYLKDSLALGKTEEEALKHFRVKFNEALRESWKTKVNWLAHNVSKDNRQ
Chain of PI3Kδ (p110δ/p85δ) (P27986 whole entry partner): as the sequence (P27986 whole entry partner) above
Chain of PI3Kγ (pp110gamma) (P48736 whole entry): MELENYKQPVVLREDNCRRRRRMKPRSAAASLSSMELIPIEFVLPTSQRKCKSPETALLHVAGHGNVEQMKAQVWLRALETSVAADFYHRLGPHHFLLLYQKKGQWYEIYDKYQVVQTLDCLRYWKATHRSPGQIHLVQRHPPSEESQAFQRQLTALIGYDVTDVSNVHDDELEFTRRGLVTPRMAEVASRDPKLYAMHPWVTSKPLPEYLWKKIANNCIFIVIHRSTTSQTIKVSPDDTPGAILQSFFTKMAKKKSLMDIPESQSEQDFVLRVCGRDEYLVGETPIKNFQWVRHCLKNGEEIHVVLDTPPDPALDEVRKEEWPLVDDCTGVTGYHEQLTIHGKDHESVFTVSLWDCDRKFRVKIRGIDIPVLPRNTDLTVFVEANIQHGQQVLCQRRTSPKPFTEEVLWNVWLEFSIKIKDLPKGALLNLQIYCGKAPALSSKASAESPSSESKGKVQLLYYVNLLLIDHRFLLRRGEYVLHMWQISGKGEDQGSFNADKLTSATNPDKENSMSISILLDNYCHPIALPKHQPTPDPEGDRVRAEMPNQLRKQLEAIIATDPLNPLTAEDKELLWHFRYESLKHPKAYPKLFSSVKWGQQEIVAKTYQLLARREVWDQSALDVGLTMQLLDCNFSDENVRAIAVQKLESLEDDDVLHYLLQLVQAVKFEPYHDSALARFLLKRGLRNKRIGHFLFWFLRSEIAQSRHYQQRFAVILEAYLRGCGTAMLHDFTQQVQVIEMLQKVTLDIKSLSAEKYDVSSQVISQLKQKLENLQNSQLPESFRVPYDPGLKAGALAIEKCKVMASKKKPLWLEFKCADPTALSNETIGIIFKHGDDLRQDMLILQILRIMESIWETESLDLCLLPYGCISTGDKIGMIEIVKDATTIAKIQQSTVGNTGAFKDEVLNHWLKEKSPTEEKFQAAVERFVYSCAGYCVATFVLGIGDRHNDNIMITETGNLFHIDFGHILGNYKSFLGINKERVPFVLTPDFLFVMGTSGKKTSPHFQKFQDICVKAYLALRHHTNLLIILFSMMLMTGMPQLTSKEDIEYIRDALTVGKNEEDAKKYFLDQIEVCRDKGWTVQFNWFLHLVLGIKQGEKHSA

An IC50 (PI3Kα (p110α/p85α)) of 6.28 µM, an IC50 (PI3Kγ (pp110gamma)) of over 10 µM and an IC50 (mTOR) of 1.28 µM were found for `CC[C@@H]1COc2c(-c3ccc(OCCCN4CCCCC4)nc3)c(F)cc3ncc4c(c23)n1c(=O)n4C` [Example A-22, (R)-10-ethyl-6-fluoro-2-methyl-7-(6-(3-(piperidin-1-yl)propoxy)pyridin-3-yl)-9,10-dihydro-8-oxa-2,4,10a-triazanaphtho[2,1,8-cde]azulen-1(2H)-one] in this work. For the same compound, the IC50 (PI3Kδ (p110δ/p85δ)) was over 10 µM, the IC50 (ATR) was over 10 µM and the IC50 (DNA-PK) was 0.852 µM. For the same compound, the IC50 (ATM) was 0.00052 µM and the IC50 (PI3Kβ (p110β)) was over 10 µM.
